Consider 22 compounds from patent US20150024008A1, “Methods and Compositions Involving Induced Senescent Cells for Cancer Treatment” (THE UNIVERSITY OF CHICAGO, priority 2011, published 2015).

For experiment [1], the system named is MCF7 Tet-On GFP-IBD human breast cancer cell line. Briefly: GFP-53BP1 IRIF persistence, senescence and growth in MCF7 Tet-On GFP-IBD cells. It counts as cell-based. Particulars: for Senescence inducing condition 1 (compound concentration combined with IR) / Senescence inducing condition 2 (compound concentration combined with IR): MCF7 cell line; for persistence of GFP-53BP1 foci (IRIF) / accelerated senescence: combined with irradiation. As for the experimental part: To examine the effect of glucose metabolism on IRIF persistence in living cells, we exploited our previously described IRIF reporter consisting of GFP fused to the 53BP1 IRIF binding domain, expressed under tetracycline-inducible control. MCF7^Tet-On GFP-IBD cells were seeded at 3×10^5 per Fluorodish (World Precision Instruments, Inc.) in high-glucose (4.5 g/L) DMEM (Invitrogen) media supplemented with 10% Tet system-approved fetal bovine serum (Clontech) and 1 μg/mL doxycycline (Sigma). Next day media was exchanged for either high-glucose (4.5 g/L) or low-glucose (1 g/L) DMEM with 10% FBS and 1 μg/mL doxycycline. […] Cells were fixed at 3 h and 24 h for IRIF imaging and at day 5 for SA-βGal staining. Images were captured on Zeiss Axiovert 200M and a Hammatsu Orca ER FireWire digital monochrome (IRIF) or Zeiss Axiocam color digital camera (SA-βGal staining) controlled by OpenLab software.
To investigate what step of glycolysis is critical for improvement of DNA repair we used set of well established glycolysis inhibitors including glucose transporter Glut1 inhibitor, HXKi, GAPHi, PKi, LDHi. […] Given that elevated glycolysis predispose tumor cells for therapeutic resistance similar experiment has been performed on IR resistant PANC02 mouse pancreatic and U87 human glioma cell lines.

Experiment [2] deals with U87 human glioma cell line. Briefly: GFP-53BP1 IRIF persistence in U87 Tet-On GFP-IBD cells. It is filed as cell-based. The settings on record: 24 hours after 6 Gy. The method, then: (§1) PANC02^Tet-On GFP-IBD and U87^Tet-On GFP-IBD cell lines have been developed. Cells were seeded at 3×10^5 per Fluorodish in media supplemented with 1 μg/mL doxycycline following pretreatment for 1 h with glycolysis inhibitors before 6 Gy irradiation at 48 h. Phloretin Glut1i—Glucose transporter 1 inhibitor 100 μM (Sigma), HXi—Hexokinase inhibitorII 50 μM (Calbiochem), PKi—Pyruvate kinase inhibitor oxalate 50 μM (Sigma), LDHi—Lactate dehydrogenase inhibitor, oxamate 1 mM (Sigma).

The test system of experiment [3] is PANC02 mouse pancreatic cell line. Briefly: GFP-53BP1 IRIF persistence in PANC02 Tet-On GFP-IBD cells. It is filed as cell-based. The settings on record: 24 hours after 6 Gy. As for the experimental part:
as §1

For experiment [4], the system named is Nu61 head and neck squamous carcinoma xenografts. Briefly: SA-βGal in Nu61 tumor xenografts. It counts as in vivo, mouse. As for the experimental part:
Head and neck squamous carcinomas cell line Nu61^Tet-On GFP-IBD with IRIF live imaging reporter have been developed. Female athymic nude mice underwent s.c. injection of 1×10^7 Nu61 Tet-OnGFP-IBD cells in 100 μL of PBS. Nine days later, mice received 25 mg/kg veliparib (ChemieTek) by oral gavage 48 hours before and 72 hours after a single dose of 6 Gy. […] Tumors were excised and frozen in liquid nitrogen for subsequent analysis. Frozen sections were analyzed for SA-βGal activity. The senescence-associated β-galactosidase (SA-βGal) assay was conducted as described before. Images were captured on a Zeiss Axiovert 200M and Zeiss Axiocam color digital camera controlled by OpenLab software with a ×20 objective.

Setting [5] is: chemotherapy agent, no irradiation stated.

As for `O=C(O)C[C@H](O)C[C@H](O)/C=C/c1c(C2CC2)nc2ccccc2c1-c1ccc(F)cc1` [Pitavastatin], in experiment [1] (compound + 6 Gy), the “Senescence inducing condition 1 (compound concentration combined with IR)” value amounted to 10 μM + 6 Gy. In the case of oxalate [PKi], the IRIF persistence entry in experiment [2] and in experiment [3] was “markedly increased IRIF persistence” each time. For the compound `O=CC[C@@H](O)[C@H](O)[C@H](O)CO` [2DG, 2-deoxy-D-glucose], the “SA-βGal induction in tumor” value in experiment [4] (irradiated tumor treated with 2DG and veliparib) is recorded as “Strongest induction of SA-βGal”. Besides, the “SA-βGal positive cells in tumor” value in experiment [4] (irradiation combined with 2DG) is listed as “induced numerous cells stained positive for SA-βGal”. The “persistence of GFP-53BP1 foci (IRIF)” value in experiment [1] is reported as “induced persistence of GFP-53BP1 foci”. Take `CN1CCC(=C2c3ccccc3CC(=O)c3sccc32)CC1` [Ketotifen]: the “Senescence inducing condition 2 (compound concentration combined with IR)” value in experiment [1] (compound + 5 Gy) is 5 μM + 5 Gy. For the compound `CCCCCCCCCCCCCCCc1cccc(O)c1C(=O)O` [anacardic acid], the “persistence of GFP-53BP1 foci (IRIF)” value in experiment [1] is listed as “enhance radiation induced persistence of GFP-53BP1 foci”. Take `O=C(O)C(Cl)Cl` [dichloroacetic acid (DCA), dichloroacetic acid]: in experiment [1], the accelerated senescence entry was “promoted accelerated senescence” and the “persistence of GFP-53BP1 foci (IRIF)” value is on record as “induced persistence of GFP-53BP1 foci following irradiation”. Turning to `COC(=O)C1=C(C)NC(C)=C(C(=O)OCC(C)C)C1c1ccccc1[N+](=O)[O-]` (stereo not shown) [Nisoldipine], the “Senescence inducing condition 2 (compound concentration combined with IR)” value in experiment [1] (compound + 6 Gy) amounted to 10 μM + 6 Gy. In the case of `O=C(CCc1ccc(O)cc1)c1c(O)cc(O)cc1O` [phloretin], in experiment [2], the IRIF persistence entry is “markedly increased IRIF persistence”. The IRIF persistence entry in experiment [3] is listed as “markedly increased IRIF persistence”. In experiment [1], the accelerated senescence result is “promoted accelerated senescence” and the “persistence of GFP-53BP1 foci (IRIF)” value is “induced persistence of GFP-53BP1 foci following irradiation”. In the case of `CN(C)C(=N)N=C(N)N` [metformin], in experiment [1], the accelerated senescence entry is reported as “promoted accelerated senescence” and the “persistence of GFP-53BP1 foci (IRIF)” value is “induced persistence of GFP-53BP1 foci after irradiation”. Turning to `Nc1nc2ccc(Cl)cc2c2nc(-c3ccco3)nn12` [CGS15943], in experiment [1] (compound + 5 Gy), the “Senescence inducing condition 2 (compound concentration combined with IR)” value was 0.05 μM + 5 Gy^. Turning to `c1cc(-c2cnn3cc(-c4ccc(OCCN5CCCCC5)cc4)cnc23)ccn1` [compound C], in experiment [1], the accelerated senescence result is recorded as “promoted accelerated senescence” and the “persistence of GFP-53BP1 foci (IRIF)” value is “induced persistence of GFP-53BP1 foci after irradiation”. As to `N.N.[Cl][Pt][Cl]` [Cisplatin], in experiment [1] (setting [5]), the “persistence of GFP-53BP1 foci” value is given as “induced persistence of GFP-53BP1 foci”; the senescence and growth result is “accelerated senescence and growth suppression”. Consider `O=c1n(CCCN2CCN(c3cccc(Cl)c3)CC2)nc2ccccn12` [Trazodone], for which the “Senescence inducing condition 2 (compound concentration combined with IR)” value in experiment [1] (compound + 6 Gy) is recorded as 10 μM + 6 Gy.

Take `CC1=C(C(=O)O)N2C(=O)[C@@H](NC(=O)[C@H](N)c3ccccc3)[C@H]2SC1` [Cephalexin]: the “Senescence inducing condition 2 (compound concentration combined with IR)” value in experiment [1] (compound + 6 Gy) is 10 μM + 6 Gy.

For `N[C@@H](C(=O)N[C@@H]1C(=O)N2C(C(=O)O)=C(Cl)CS[C@H]12)c1ccccc1` [Cefaclor], the “Senescence inducing condition 1 (compound concentration combined with IR)” value in experiment [1] (compound + 6 Gy) was determined as 25 μM + 6 Gy. With `CN(C/C=C/C#CC(C)(C)C)Cc1cccc2ccccc12` [Terbinafine], the “Senescence inducing condition 1 (compound concentration combined with IR)” value in experiment [1] (compound + 5 Gy) was 2.5 μM + 5 Gy.

With `COc1ccc(C2CNC(=O)C2)cc1OC1CCCC1` (stereo not shown) [Rolipram], in experiment [1] (compound + 6 Gy), the “Senescence inducing condition 1 (compound concentration combined with IR)” value was 10 μM + 6 Gy. In the case of `O=C(CCCCCCC(=O)Nc1ccccc1)NO` [SAHA, suberoylanilide hydroxamic acid], the “persistence of GFP-53BP1 foci (IRIF)” value in experiment [1] is “enhance radiation induced persistence of GFP-53BP1 foci”. Regarding `CC/C(=C(\c1ccccc1)c1ccc(OCCN(C)C)cc1)c1ccccc1` [Tamoxifen], in experiment [1], the accelerated senescence entry is listed as “promoted accelerated senescence” and the “persistence of GFP-53BP1 foci (IRIF)” value is “induced persistence of GFP-53BP1 foci after irradiation”. For `O=c1c(O)c(-c2ccc(O)c(O)c2)oc2cc(O)cc(O)c12` [Quercetin], the “Senescence inducing condition 2 (compound concentration combined with IR)” value in experiment [1] (compound + 5 Gy) was 2.5 μM + 5 Gy. Turning to `O=c1[nH]cc(F)c(=O)[nH]1` [Fluorouracil (5-FU), Fluorouracil], in experiment [1], the accelerated senescence entry is “accelerates senescence” and the “persistence of GFP-53BP1 foci (IRIF)” value is “enhances IRIF persistence”. As for `CN(C)CCC=C1c2ccccc2COc2ccccc21` [Doxepin], the “Senescence inducing condition 2 (compound concentration combined with IR)” value in experiment [1] (compound + 5 Gy) is reported as 2.5 μM + 5 Gy.
